The values that follow come from patent publication US7148014B2, “Methods of inhibiting phagocytosis” (University of Pennsylvania, priority 1993, dated 2006).

Data set [1] relates to FcγRIIA mediated phagocytosis in monocytes. Put plainly: Phagocytosis of IgG-sensitized RBCs (EA) by cultured monocytes treated with ODN-liposome complexes. The conditions noted are these: for phagocytic index (PI): untreated PI 220±8.8. It is filed as cell-based, human. How it is done:
Monocytes (1×10^5 cells/ml) were incubated with complexes of 4 μg/ml of LIPOFECTAMINE and ODNs (1.0 μM each of the linear control or the linear Syk antisense ODNs, or 0.2 μM each of the stem-loop control or the stem-loop Syk antisense ODN) for 2 days, and the phagocytosis of IgG-sensitized red blood cells (EA) was examined. Phagocytic index (PI)=number of ingested RBCs/100 cells. Each bar represents the mean±SEM of three separate experiments.
(§1) Antisense or scrambled control ODNs were modified to be protected from nucleases. One phosphodiester backbone at the 5-prime terminus and two at the 3-prime terminus were modified with phosphorothioate. Prediction of secondary structures of Syk mRNA (Law et al, J. Biol. Chem. 269:12310 (1994)) and ODNs were carried out with the MacDNASIS program (Hitachi Software, San Bruno, Calif.) on a Macintosh computer. Linear 17 mer Syk antisense ODN, having the sequence of 5′-[…]-3′ (SEQ ID NO:9), targets the area surrounding the translation initiation codon of Syk mRNA. Stem-loop Syk antisense ODN is a 57 mer containing sequences complementary to three different target sites, target I (the area of the translation initiation, nucleotide no. 159 to 173) , target II (451 to 463) , and target III (802 to 816) of Syk mRNA (Law et al, J. Biol. Chem. 269:12310 (1994)) (FIG. 5). The stem-loop Syk antisense ODN forms a stem and loop structure by itself and was designed to contain minimal intramolecular secondary structures in the loop domain (FIG. 6) . The sequence of the stem-loop Syk antisense ODN is 5′ - […] C-3′ (SEQ ID NO:10). Linear 17 mer control ODN has a random sequence of 5′-[…]-3′ (SEQ ID NO:11). Stem-loop 61 mer control ODN has a random sequence of 5′ -[…]- 3′ (SEQ ID NO:12) within the loop domain. The linear and stem-loop control ODNs were also modified at both the 5-prime and 3-prime termini by phosphorothioates. Preparation of liposomes: One μg each of the control scrambled phosphodiester ODNs, the linear and stem-loop Syk antisense ODNs in 50 μl of PBS were incubated with 4 μg (2 μl) of LIPOFECTAMINE™ (GIBCO BRL, Life Technologies, Inc. Gaithersburg, Md.). The ODN-liposome complexes were allowed to form at the room temperature for 45 min. Monocytes isolation and culture: Peripheral blood mononuclear cells from healthy individuals were isolated by a standard adherence procedure (Darby et al, J. Immunol. 152:5429 (1994)). Briefly, the heparinized blood was centrifuged on Ficoll-Hypaque (Lymphocyte Separation Medium; Organon Teknika, Durham, N.C.) and interface cells were washed twice in PBS. Mononuclear cells were resuspended in complete medium containing RPMI 1640 (GIBCO BRL, Life Technologies, Inc. Gaithersburg, Md.) with 10% heat-inactivated FCS and 2 mM L-glutamine. Cells were allowed to adhere at 37° C. onto tissue culture flasks precoated with FCS. After 45 to 90 min non-adherent cells were removed with extensive washing in HBSS. Cells were harvested by vigorous agitation. The yield of monocytes ranged from 2–6×10^7 cells/500 ml of blood. Monocytes were routinely more than 98% viable judged by trypan blue exclusion. Isolated monocytes were maintained in RPMI 1640 supplemented with L-glutamine (2 mM) and 10% heat-inactivated FCS at 37° C. with 5% CO2. Oligodeoxynucleotides treatment of cells. 1×10^5 Monocytes were incubated with ODN-liposome complexes containing 2 μg/ml of LIPOFECTAMINE and 0.5 μM of the linear control, 0.5 μM of the linear Syk antisense ODN or 0.1 μM of the stem-loop control, 0.1 μM of the stem-loop Syk antisense ODN in 0.3 ml of RPMI 1640 medium without FCS in a 24-well plate (Falcon; Becton Dickinson Labware, Lincoln Park, N.J.) at 37° C. for 4 h. Medium was added to a 1 ml final volume with RPMI 1640 containing 10% FCS and cells were then incubated at 37° C. for 2 days. […]

The subject of another data set is Syk mRNA. Put plainly: RT-PCR / Southern hybridization of Syk mRNA in monocytes. It is filed as cell-based, human. The conditions noted are these: 2 days. The protocol: FIG. 8. Effect of Syk antisense ODNs on Syk mRNA in monocytes. Total RNA was isolated from monocytes (1×10^5 cells/ml) treated with complexes of 4 μg/ml of LIPOFECTAMINE and the ODNs (1.0 μM each of the linear control or the linear Syk antisense ODN, or 0.2 μM each of the stem-loop control or the stem-loop Syk antisense ODN) for 2 days, and cDNA was synthesized from total RNA with random hexanucleotide primers. PCR was performed with Syk cDNA as templates with two Syk primers (Syk-H and Syk-M). PCR products were analyzed by Southern hybridization and hybridized bands were visualized by chemiluminescent detection reagents.
as §1, with “PBS.” for “PBS. Mononuclear cells were resuspended in complete medium containing RPMI 1640 (GIBCO BRL, Life Technologies, Inc. Gaithersburg, Md.) with 10% heat-inactivated FCS and 2 mM L-glutamine. Cells were allowed to adhere at 37° C. onto tissue culture flasks precoated with FCS. After 45 to 90 min non-adherent cells were removed with extensive washing in HBSS. Cells were harvested by vigorous agitation. The yield of monocytes ranged from 2–6×10^7 cells/500 ml of blood. Monocytes were routinely more than 98% viable judged by trypan blue exclusion. Isolated monocytes were maintained in RPMI 1640 supplemented with L-glutamine (2 mM) and 10% heat-inactivated FCS at 37° C. with 5% CO2. Oligodeoxynucleotides treatment of cells. 1×10^5 Monocytes were incubated with ODN-liposome complexes containing 2 μg/ml of LIPOFECTAMINE and 0.5 μM of the linear control, 0.5 μM of the linear Syk antisense ODN or 0.1 μM of the stem-loop control, 0.1 μM of the stem-loop Syk antisense ODN in 0.3 ml of RPMI 1640 medium without FCS in a 24-well plate (Falcon; Becton Dickinson Labware, Lincoln Park, N.J.) at 37° C. for 4 h. Medium was added to a 1 ml final volume with RPMI 1640 containing 10% FCS and cells were then incubated at 37° C. for 2 days.”

For data set [2], the system named is COS-1 cells transfected with FcγRIIIA-α/γ. Put plainly: Phagocytosis of IgG-sensitized RBCs (EA) by transfected COS-1 cells. It is filed as cell-based. The conditions noted are these: for phagocytic activity restored after washing: pretreated 400 μM. The protocol:
(§2) FcγRIIIA isoforms, FcγRIIIA-γγ, FcγRIIIA-ζζ, were generated by cotransfection of COS-1 cells with cDNA of γ or ζ as well as cDNA of α. Transfections of cDNAs were carried out with a modified DEAE-Dextran method. Briefly, 300,000 COS-1 cells were seeded on 35 mm well plates 24 hours prior to transfection. Plates of 70 to 80% confluence were washed twice and incubated for 30 minutes with Dulbeco's Modification of Eagle's Medium (DMEM, Gibco BRL, Grand Island, N.Y.) before transfection. Four μg of plasmid DNA (0.5 μg/μl) was slowly added to 1 ml of a transfection buffer containing Nu medium (DMEM with 10% of NuSerum [Collaborative Biomedical, Two Oak Park, Bedford, Mass.], 1 mg/ml of DEAE Dextran and 100 μM chloroquine. The transfection buffer containing DNA was added to COS-1 cells with incubation for 4 hours at 37° C. Cells were then shocked with 10%. DMSO in phosphate buffered saline (PBS) for 2 minutes, washed twice with DMEM and grown in NuSerum supplemented DMEM. Cells were studied 48 hours following transfection.
(§3) Binding and pragocytosis of IgG-sensitized RSCs (EA): Sterile sheep red blood cells (10^9/ml) in calcium and magnesium-free PBS were sensitized by incubation with an equal volume of a subagglutinating titer of rabbit anti-sheep RBC antibody (Cappel Laboratories, Cochranville, Pa.). The IgG-sensitized RBCs (EA) were washed twice with PBS and resuspended to a final concentration of 10^9/ml for overlaying on transfected COS-1 cells. Cells were examined for rosetting (>10 EA per COS-1 cell) and phagocytosis as described previously (Indik et al, J. Clin. Invest. 88:A66 (1991)). For the analysis of phagocytosis, COS-1 cells bound with EA (after three washings) were subjected to a brief hypotonic shock (35 seconds) with hypotonic PBS to remove surface bound EA. The cells were then stained with Wright-Giemsa staining solutions, and phagocytosis (ingested EA) was determined by light microscopy. Results obtained were analyzed by Student's T-test.

The test system is the same in data set [3]. Briefly: Binding (rosetting) of EA by transfected COS-1 cells. It is filed as cell-based. How it is done: as §2, §3
Data set [4] can be described thus: Stability of antisense ODNs to serum nucleases. The conditions noted are these: for resistance to serum nucleases: modified with phosphorothioate. It is filed as in vitro ADME.
The mark [5] stands for this setting: ODN 1 μM, LIPOFECTAMINE complexes, 2 days.
Setting [6] is: ODN 0.2 μM, LIPOFECTAMINE complexes, 2 days.

For the compound “5′ -ATGGAATCATCTTGGGCATTCATTCGTTCCTCAAAGAAGAATATGAA- 3′ (SEQ ID NO:12) (listed as DNA, chemistry not given here) [stem-loop control, Stem-loop 61 mer scrambled control ODN]”, the “effect on FcγRIIA mediated phagocytosis” value in data set [1] (ODN 0.2 μM) was “did not significantly affect”. Further, the “effect on Syk mRNA” value in the data set on Syk mRNA (ODN 0.2 μM) is recorded as “did not reduce”.
For the compound `N#CC(C#N)=Cc1ccc(O)c(O)c1` [Tyr23, tyrphostin 23], the “PI (Phagocytic Index)” value came to 68 ± 4 in data set [2] (Tyr23 25 μM); 26 ± 7 in data set [2] (Tyr23 50 μM); 16 ± 6 in data set [2] (Tyr23 100 μM); 1.2 ± 1 in data set [2] (Tyr23 200 μM); 0 in data set [2] (Tyr23 400 μM); 63 ± 7 in data set [2] (Tyr23 400 μM + washing (3 hr wash)). For the same compound, the IC50 in data set [2] (dose dependent, p<0.01, read-out: concentration giving 50% inhibition of phagocytosis) was found to be 25 µM. The “concentration giving complete inhibition of phagocytosis” value in data set [2] (p<0.01) was in the range of 200 to 400 µM. The entries for the “phagocytic activity restored after washing” value in data set [2] (3 hr wash) and in data set [2] (overnight wash (data not shown)) were “partially” and “completely”, respectively. Further, the “viability of transfectants on inhibition of phagocytosis” value in data set [2] (pretreated with 400 μM followed by washing) is recorded as “not associated with reduction in viability”. For the same compound, the “effect on binding of EA” value in data set [3] is on record as “did not affect”. The “Rosetting (% Cells)” value worked out at 52 ± 9 % Cells in data set [3] (Tyr23 25 μM); 52 ± 8 % Cells in data set [3] (Tyr23 50 μM); 49 ± 7 % Cells in data set [3] (Tyr23 100 μM); 47 ± 5 % Cells in data set [3] (Tyr23 200 μM); 48 ± 3 % Cells in data set [3] (Tyr23 400 μM); 44 ± 6 % Cells in data set [3] (Tyr23 400 μM + washing).
For the compound “5′-CGCTGTCAGCCATGCCG-3′ (SEQ ID NO:9) (DNA, backbone and methylation of C not given here; phosphorothioate linkages at both 5' and 3' termini, further chemistry not fully specified) [linear Syk antisense ODN, Linear 17 mer, phosphorothioate-modified termini, targets area surrounding translation initiation codon of human Syk mRNA]”, in data set [1] (setting [5]), the “Phagocytosis reduced by (phagocytic index)” value was determined as 49% and the “phagocytic index (PI)” value was found to be 113±12.3. Further, the “effect on Syk mRNA” value with Syk mRNA (ODN 1.0 μM) is “substantially reduced”. For the same compound, the “resistance to serum nucleases” value in data set [4] is “partial resistance”.
As for “5′ - GGGGGGGCTGTCAGCCATGCCGTGTCTTGTCTTTGTCGCTTCTTGAGGAGCCCCCC C-3′ (SEQ ID NO:10) (antisense GGGGGGGCTGTCAGCCATGCCGTGTCTTGTCTTTGTCGCTTCTTGAGGAGCCCCCCC; DNA, backbone and methylation of C not given here; stem-loop hairpin, phosphorothioates at both termini, further chemistry not fully specified) [stem-loop Syk antisense ODN, 57 mer stem-loop ODN complementary to three target sites of human Syk mRNA, phosphorothioate-modified termini]”, the “reduction of the phagocytic signal compared with a mixture of three linear antisense oligonucleotides” value in data set [1] is “more dramatically”. In addition, in data set [1] (setting [6]), the “reduction in phagocytosis (phagocytic index)” value is given as 89% and the “phagocytic index (PI)” value worked out at 24±4.2. For the same compound, in the data set with Syk mRNA (ODN 0.2 μM), the “effect on Syk mRNA” value is given as “completely eliminated”. The “stability when complexed with liposomes” value in data set [4] (complexed with liposomes) is “markedly improved”. Further, the “resistance to serum nucleases” value in data set [4] is “partial resistance”. For the same compound, the stability in serum entry in data set [4] (with phosphorothioate modifications) is given as “exceptional stability”.
With “5′-GCCCAAGATGATTCCAG-3′ (SEQ ID NO:11) (phosphorothioate linkages at both termini, number not given here) [linear control]”, in data set [1] (ODN 1 μM), the “effect on FcγRIIA mediated phagocytosis” value is “did not significantly affect”. Moreover, in the data set with Syk mRNA (ODN 1.0 μM), the “effect on Syk mRNA” value is “did not reduce”.
